Results on 4 molecules are retold here after publication PMC12346769, “Activity Analysis and Inhibition Mechanism of Four Novel Angiotensin I-Converting Enzyme Inhibitory Peptides Prepared from Flammulina velutipes by Enzymatic Hydrolysis” (Foods, 2025).

For this test, the target named is T1, ACE (Homo sapiens, UniProt P12821).
T1 construct: purchased Shanghai Yuanye Biotechnology Co., Ltd
The test is described as follows: ACE inhibition rate / IC50 determination with FAPGG substrate (absorbance 340 nm). The test is classed as biochemical. The conditions noted are these: for Inhibitory effect as % of the positive control: ACE inhibition rate relative to captopril; for IC50 / Inhibition Rate of ACE: synthesized peptides, captopril as positive control; for Inhibition Rate of ACE: test concentration not given. The method, then: The ACE inhibition rate was determined according to the method developed by Wang. In brief, 1 mmol/L FAPGG solution, 0.1 U/mL ACE solution, and F. velutipes protein solution were mixed in 80 mmol/L HEPES buffer (pH 8.2), and the mixture was added to 96-well plates according to Table 1. The absorbance value at the wavelength of 340 nm at 37 °C and the absorbance value after 30 min of reaction were measured. The calculation formula is as follows: (2) Inhibition Rate of ACE%=(1−ΔA/ΔB)×100
In the formula, ΔA = A1 − A2; ΔB = B1 − B2. ΔA was the absorbance value of the sample pore solution; ΔB was the absorbance value of the control pore solution. A1 and B1 were the absorbance values measured at the wavelength of 340 nm. A2 and B2 were the absorbance values measured at the wavelength of 340 nm after reacting for 30 min at 37 °C.
Wuhan Dangang Biotechnology Co., Ltd. (Wuhan, China) was commissioned to synthesize the peptides. […] With captopril as the positive control, the ACE inhibition rate and IC50 of the above synthetic peptides were determined according to the method of Section 2.5.

Marks after values point to notes of the source that are not given here. Where a SMILES comes first, the peptide text is derived from it. Where no end group is shown, it is not given here.

By IC50 is commonly meant the concentration needed to halve the response being measured. A lower IC50 goes with higher potency.

T1 sequence (P12821 30-1306, species assumed): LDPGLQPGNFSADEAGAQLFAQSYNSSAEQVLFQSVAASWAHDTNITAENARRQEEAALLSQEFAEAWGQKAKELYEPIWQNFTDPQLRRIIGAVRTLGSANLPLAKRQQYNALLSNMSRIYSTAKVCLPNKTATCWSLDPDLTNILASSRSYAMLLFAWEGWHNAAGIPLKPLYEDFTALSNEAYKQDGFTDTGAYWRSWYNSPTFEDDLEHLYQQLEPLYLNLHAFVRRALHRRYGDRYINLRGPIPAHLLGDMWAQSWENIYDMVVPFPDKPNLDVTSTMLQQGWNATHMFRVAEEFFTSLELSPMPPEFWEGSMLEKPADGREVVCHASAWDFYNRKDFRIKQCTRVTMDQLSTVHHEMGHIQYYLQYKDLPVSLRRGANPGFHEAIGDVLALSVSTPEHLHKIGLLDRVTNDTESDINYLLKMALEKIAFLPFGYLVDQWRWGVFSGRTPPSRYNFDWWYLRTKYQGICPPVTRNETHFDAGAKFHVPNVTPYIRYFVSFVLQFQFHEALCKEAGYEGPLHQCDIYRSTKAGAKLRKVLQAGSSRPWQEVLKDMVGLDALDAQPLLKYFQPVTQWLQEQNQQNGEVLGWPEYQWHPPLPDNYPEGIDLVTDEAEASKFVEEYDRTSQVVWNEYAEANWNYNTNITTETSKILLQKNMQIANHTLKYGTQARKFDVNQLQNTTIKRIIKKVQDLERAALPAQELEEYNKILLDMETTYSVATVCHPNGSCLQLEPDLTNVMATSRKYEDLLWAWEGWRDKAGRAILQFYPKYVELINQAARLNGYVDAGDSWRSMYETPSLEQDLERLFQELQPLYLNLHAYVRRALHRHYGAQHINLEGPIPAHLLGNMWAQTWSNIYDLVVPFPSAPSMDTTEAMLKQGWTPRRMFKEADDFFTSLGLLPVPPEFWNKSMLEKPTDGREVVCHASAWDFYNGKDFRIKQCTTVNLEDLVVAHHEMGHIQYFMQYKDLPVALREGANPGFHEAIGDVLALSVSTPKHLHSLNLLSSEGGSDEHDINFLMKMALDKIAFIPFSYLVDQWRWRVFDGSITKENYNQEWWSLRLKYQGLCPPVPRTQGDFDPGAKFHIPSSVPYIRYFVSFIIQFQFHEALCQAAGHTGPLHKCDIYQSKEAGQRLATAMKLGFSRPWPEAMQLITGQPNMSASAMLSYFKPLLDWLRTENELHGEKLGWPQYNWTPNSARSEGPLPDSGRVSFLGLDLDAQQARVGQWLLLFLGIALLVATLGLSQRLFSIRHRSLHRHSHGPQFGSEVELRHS

As for `N[C@@H](Cc1ccccc1)C(=O)N[C@@H](CC(=O)O)C(=O)NCC(=O)N[C@@H](Cc1ccc(O)cc1)C(=O)O` [FDGY] (H-FDGY-OH; N-terminus and C-terminus assumed), the “Inhibitory effect as % of the positive control” value (“Inhibitory effect as %” for short) was found to be 81.53%, the 50% inhibitory concentration (IC50) turned out to be 91.5 ± 1.09 µM and the “Inhibition Rate of ACE” value was 80.48 ± 0.84 ^e %.
As for FHPGY [FHPGY], the “Inhibitory effect as %” value was determined as 92.60%, the half-inhibitory concentration (IC50) is 14.8 ± 0.34 µM and the “Inhibition Rate of ACE” value is reported as 91.41 ± 1.01 ^b %.
Turning to FAGGP [FAGGP], the “Inhibitory effect as %” value was 87.04%, the IC50 came to 29.2 ± 1.37 µM and the “Inhibition Rate of ACE” value was 85.92 ± 1.81 ^c %.
Consider `C[C@H](NC(=O)[C@@H](N)Cc1c[nH]c2ccccc12)C(=O)N[C@@H](CC(=O)O)C(=O)N1CCC[C@H]1C(=O)O` [WADP] (H-WADP-OH; N-terminus and C-terminus assumed), for which the “Inhibitory effect as %” value came out at 84.13%, the IC50 came out at 41.3 ± 0.7 µM and the “Inhibition Rate of ACE” value was 83.04 ± 0.68 ^d %.
